Source: patent US20240091319A1, “DUAL-ADMINISTRATION METHODS FOR TREATING RESPIRATORY DISTRESS” (THE TRUSTEES OF THE STEVENS INSTITUTE OF TECHNOLOGY, priority 2021, published 2024)
Where no end group is shown, it is not given here. The star is where a group is joined. Biotin = O=C1N[C@H]2[C@H](CS[C@H]2CCCCC(=O)*)N1

How the values were obtained:
lungs = conditions: administered to the lungs; U.S. Pat. Nos. 9,504,796 and 9,693,990; cited from earlier work
adult rat lung = test: Facilitation of dilute […] by negatively charged solutes in the adult rat lung; conditions: solute at 5 w/v %
Description: Method 1. […] Alveolar air pressure is determined with a transducer at the trachea of the constantly-inflated lung. Alveolar liquid phase pressure is determined by servo-nulling pressure measurement.

[1] = tested on: rats with model lung injury; test: Therapeutic IV SRB administration in vivo in rats with model lung injury (injurious ventilation, then 4-hr support); conditions: rat, target plasma concentration 10 nM
Description: The therapeutic efficiencies of clinical method analogues, including tracheal instillation, intravascular (IV) administration, etc. of various surface tension-lowering components can be tested in an animal following generation of model lung injury in the animal. For example, therapeutic IV SRB administration was tested in vivo in rats with model lung injury, as follows. All animals were handled in accord with a protocol approved by the Stevens Institute of Technology Institutional Animal Care and Use Committee. First, the model lung injury was generated by ventilating an anesthetized rat with an excessive tidal (breath) volume (VT) of 42 ml/kg body weight and an end-expiratory pressure of zero for 15 min to physically injure the lungs. Then, modeling clinical treatment of a patient with lung injury, VT was reduced to a protective level of 6 ml/kg, end-expiratory pressure was increased to a positive, protective level of 2 or 10 cm H2O, and the rat continued to be supported by mechanical ventilation for 4 hrs. SRB was administered IV, targeting a plasma concentration of 10 nM, after the injury period and at the start of the support period, mimicking therapeutic administration after the development of respiratory distress but prior to supportive treatment by mechanical ventilation. Oxygenation was tracked during the 4-hr support period. At the end of the support period, the rat was sacrificed, the lungs were isolated, and alveolar T was determined in situ in the isolated lungs using Method 1, above. In lungs from rats sacrificed at the end of the 4-hr support period, T was determined in one aerated alveolus and one flooded alveolus.

[2] = tested on: alveoli of isolated rat lungs; test: Surface tension determination in the isolated adult rat lung (Method 1), solutions injected into alveoli in situ; conditions: for surface tension (T): alveolar administration
Description: Method 1. Surface tension determination in the isolated adult rat lung. In an isolated (excised) adult rat lung, the alveolar liquid is labeled with a fluorescent dye verified not to alter surface tension. T is determined as follows at a curved region of the alveolar air-liquid interface (e.g., the meniscus in a flooded alveolus or the corner of an aerated alveolus). Alveolar air pressure is determined with a transducer at the trachea of the constantly-inflated lung. Alveolar liquid phase pressure is determined by servo-nulling pressure measurement. The three-dimensional interfacial radius of curvature is determined by confocal microscopy. The surface tension is calculated according to the Laplace relation.
Alveoli of isolated rat lungs were injected (or flooded) in situ with various solutions or components and the effects on alveolar surface tension were compared. The accompanying FIG. 1 includes a composite bar chart comparing T values resulting from treatment with various solutions or components. Details, including the compositions and concentrations of any administered solutions or components, are shown below the x-axis of the chart. In more detail, the rat lungs were micropunctured, optionally flooded with red blood cell (RBC) homogenate alone, with albumin, or with albumin and SRB. […] Half of these samples receiving the second injection were additionally subjected to 50 ventilation cycles at the noted pressures. Additional experimental details are described in the Methods section of Nguyen, T L and Perlman, C E, “Sulforhodamine B and exogenous surfactant effects on alveolar surface tension under acute respiratory distress syndrome conditions,” J. Appl. Physiol. 2020, 129(6), 1505-1513, the entire content of which is incorporated herein by reference.
With reference to the accompanying FIG. 1 and its chart, the first data point (bar) corresponds to normal, aerated alveoli in normal lungs, as a control. The red blood cell homogenate was added to the remaining data points to simulate epithelial damage and hemorrhaging of the alveolar capillaries, as may be present in some cases of ARDS.

[3] = tested on: alveolar-capillary barrier of heterogeneously flooded regions, isolated adult rat lung; conditions: injected into alveoli of isolated lungs in situ; SRB 1 nM-1,000 nM with albumin 3-12 w/v % in alveolar liquid; cited from earlier work
[4] = tested on: alveoli of isolated rat lungs; conditions: injected into alveoli of isolated lungs in situ; SRB 1 nM-1,000 nM with albumin 3-12 w/v % in alveolar liquid; cited from earlier work
[5] = low concentrations, in the presence of albumin; reported in an earlier patent publication; cited from earlier work
[6] = tested on: alveolar-capillary barrier of heterogeneously flooded regions, isolated adult rat lung; test: Ventilation 'injury score' in the isolated adult rat lung (Method 2); conditions: flooding solution in normal saline with 5% albumin; solutes at about the concentrations present in 1% SURVANTA; FIG. 2A
Excerpt: Solutes are at about the same concentrations as present in 1% […]® solution. The surfactant protein B (SP-B) and SP-C used are isolated from pulmonary alveolar proteinosis patients; the SP-C, thus, is likely a mixture of fully-, partially- and non-palmitoylated peptide. Two forms of synthetic SP-C are used. One is sSP-Cff-leuc. […] Due to pre-dissolution of certain solutes, at high concentration, in non-aqueous solvents, the final dipalmitoylphosphatidylcholine (DPPC) solution contains 2% methanol; the final SP-B and SP-C solutions contain 1.6% chloroform and 0.8% methanol; and the final sSP-Cff-leuc solution contains 1.3% chloroform and 1.3% ethanol.
Base solution for all groups is normal saline.
Method 2. Ventilation ‘injury score’ in the isolated adult rat lung. An isolated adult rat lung is perfused with a physiologic solution (i.e. the solution is pumped through the lung vessels, including the capillaries) containing a low concentration of a fluorescent dye verified not to alter surface tension. A surface alveolus of the lung is micropunctured and a non-fluorescent test solution is injected. In experimental regions, a sufficiently large volume of liquid is injected to generate a pattern of heterogeneous alveolar flooding; in control regions, a sufficiently small volume of liquid is injected so that the liquid spontaneously clears from the region, leaving behind a micropunctured-but-aerated region. The region is imaged by confocal microscopy over a five minute baseline period at a constant transpulmonary pressure of 5 cm H2O. Five ventilation cycles are supplied to the lung at 0.33 Hz with the equivalent of a positive end-expiratory pressure of 15 cm H2O and with a tidal volume of 6 ml/kg body weight. The lung is then returned to a constant transpulmonary pressure of 5 cm H2O and imaged for 10 additional minutes. Alveolar liquid fluorescence at all time points is normalized by capillary fluorescence.
At baseline, alveolar liquid fluorescence (in flooded alveoli of experimental regions or in the liquid lining layer of control, aerated regions) is low and constant in all regions. Following ventilation, alveolar liquid fluorescence remains unchanged in aerated regions but continually increases with time in heterogeneously flooded regions. […] The increase above baseline in normalized alveolar liquid fluorescence at the last time point of the experiment is used as an injury score. The injury score, which indicates the rate of increase of normalized fluorescence following ventilation, correlates with the surface tension of the test solution.

immature fetal rat lung = test: Opening pressure of the immature fetal rat lung after tracheal instillation (Method 3); conditions: 4-5 μl instilled in trachea, embryonic day 18 or 19; with 5% albumin; 1% SURVANTA, 0.0005% SP-C; FIG. 3
Description: Solution (4-5 μl), with solutes as specified, is instilled in the trachea of the fluid-filled immature (embryonic day 18 or 19) fetal rat lung. The pressure required to inflate the fetal rat lung for the first time is proportional to surface tension. […] The sSP-Cff-ion lock used is not biotinylated and is dissolved directly in normal saline without additional solvents. n=1 or 2/group.
Method 3. Opening pressure of the immature fetal rat lung. To inflate the initially liquid-filled fetal lung for the first time, the pressure applied at the trachea must be sufficient to overcome a capillary force that is proportional to the surface tension of the liquid in the lung. Thus, following instillation of a test solution in the trachea of the immature fetal rat lung, the opening pressure of the lung is indicative of the surface tension of the test solution. At embryonic day 18 or 19 (term=day 22), a fetus is delivered from a pregnant rat by uterotomy. […] The opening pressure that causes air to flow into the lungs is recorded, and is proportional to the solution surface tension.

For rhodamine WT, the “redistribution of edema liquid among alveoli” value (lungs) is given as “promoting equitable redistribution of edema liquid among alveoli” and the surface tension (lungs) is given as “capable of lowering surface tension”.

In the case of fibrinogen, the “facilitation of the surface activity of 1 vol % SURVANTA” value (adult rat lung) is reported as “also facilitate 1 vol % SURVANTA®”.

For CCN(CC)c1ccc2c(-c3ccc(S(=O)(=O)O)cc3S(=O)(=O)[O-])c3ccc(=[N+](CC)CC)cc-3oc2c1 [SRB, sulforhodamine B], the “plasma markers of lung injury and inflammation” value [1] was “reduce plasma markers of lung injury and inflammation”, the “ventilation-induced lung injury (VILI)” value [1] was “reduce VILI” and the “alveolar surface tension (T), determined in isolated lungs after sacrifice” value ([1]; after injury period, end of 4-hr support period) was “reduce surface tension specifically in flooded/injured alveoli”. The oxygenation ([1]; tracked during 4-hr support period) was “improve oxygenation”, the “speed of T lowering compared with exogenous surfactant” value ([2]; RBC homogenate plus albumin, FIG. 1) was “acts faster than exogenous surfactant” and the “surface tension (T)” value ([2]; T increased by cell debris) was “reduce T”. The “surface tension (T)” value ([2]; T increased by secretory phospholipase A2 (sPLA2)) was “reduce T”, the “alveolar surface tension (T)” value ([2]; alveoli flooded with RBC homogenate, albumin and SRB included, FIG. 1 bars 4, 7, 8) was “immediately decreased/normalized” and the “redistribution of edema liquid among alveoli” value (lungs) was “promoting equitable redistribution of edema liquid among alveoli”. For the same molecule, the surface tension (lungs) was “capable of lowering surface tension”, the “ventilation injury of flooded alveoli” value [3] was “protect against ventilation injury of flooded alveoli” and the surface tension [4] was “lower surface tension”.

For “GIPFFPVHLKRLKLLLLLLLLILLLILGALLMGL (SEQ ID NO:2) (sSP-Cff-leuc)”, the “surface tension in the lungs” value [5] is listed as “can lower surface tension in the lungs” and the “injury score (thus surface tension)” value [6] is listed as “lower injury score”.

In the case of “sSP-Cff-ion lock-B: variant of sSP-Cff-ion lock with a biotinylated N-terminal (Biotin-GIPFFPVHLKRLLIVVVVVELIVKVIVGALLMGL)”, the “surface tension in the lungs” value [5] is given as “can lower surface tension in the lungs” and the “injury score (thus surface tension)” value [6] is given as “lower injury score”.

With CCCCCCCCCCCCCCCC(=O)OC[C@H](COP(=O)([O-])OCC[N+](C)(C)C)OC(=O)CCCCCCCCCCCCCCC [DPPC, dipalmitoylphosphatidylcholine, reference compound] the “injury score (thus surface tension)” value [6] was “not those containing DPPC or SP-B”.

For “GIPFFPVHLKRLLIVVVVVELIVKVIVGALLMGL (SEQ ID NO:3) (sSP-Cff-ion lock)”, the “surface tension in the lungs” value [5] is listed as “can lower surface tension in the lungs” and the “opening pressure (proportional to surface tension), compared with 100% SURVANTA without albumin” value (immature fetal rat lung) is listed as “at least as effective as 100% SURVANTA in the absence of albumin”.

B1: SP-B: surfactant protein B isolated from pulmonary alveolar proteinosis patients (protein, UniProt P07988 201-279, looked up)
Pulmonary …: FPIPLPYCWLCRALIKRIQAMIPKGALAVAVAQVCRVVPLVAGGICQCLAERYSVILLDTLLGRMLPQLVCRLVLRCSM
modifications: Pulmonary surfactant-associated protein B
notes: surfactant protein B isolated from pulmonary alveolar proteinosis patients
With B1 the “injury score (thus surface tension)” value [6] was “not those containing DPPC or SP-B”.
